Data on one compound can be found in PMC6927504, “Screening of House Dust from Chinese Homes for Chemicals with Liver X Receptors Binding Activities and Characterization of Atherosclerotic Activity Using an in Vitro Macrophage Cell Line and ApoE^−/− Mice” (Environmental Health Perspectives, 2019).

The structures appear in SMILES notation.

Assay [1] has as its target T1, human LXRβ (Homo sapiens, UniProt P55055).
T1 sequence (P55055 219-460): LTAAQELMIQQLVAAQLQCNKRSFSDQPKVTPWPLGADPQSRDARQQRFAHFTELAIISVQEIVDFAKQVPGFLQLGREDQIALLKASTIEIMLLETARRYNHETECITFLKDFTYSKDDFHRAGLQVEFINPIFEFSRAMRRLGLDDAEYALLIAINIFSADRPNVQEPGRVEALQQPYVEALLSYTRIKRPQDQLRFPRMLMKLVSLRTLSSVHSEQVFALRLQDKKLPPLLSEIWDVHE
The assay can be described thus: Yeast two-hybrid assay (LXRβ LBD with coactivator TIF2, β-galactosidase readout).

Assay [2] concerns human primary preadipocytes. Further details: method as in Tung et al. 2017. The settings on record: ref Tung et al. 2017; cited from earlier work.
Assay [3] addresses T1, human LXRβ. Nature of the assay: cell-based.
For assay [4], the system named is RAW264.7 macrophages. Nature of the assay: Cellular NBD-cholesterol efflux assay in RAW264.7 macrophages. Format: cell-based. Here is the method: RAW264.7 cells were obtained from the National Infrastructure of Cell Line Resource of Beijing, China, and the cells used for the experiment were cultured for at least three passages. Dulbecco’s Modified Eagle’s Medium (DMEM)-F12 medium containing 10% fetal bovine serum (FBS) was employed to culture the RAW264.7 cells. RAW264.7 cells were incubated at 37°C with 5% carbon dioxide. The RAW264.7 cells were plated at 2.5×10^5 cells/well (6-well plates), 6.0×10^4 cells/well (24-well plates), and 10^4 cells/well (96-well plates). […] Then the cells were used for the quantitative reverse transcription (qRT)-PCR, cellular cholesterol efflux assay, and foam cell formation experiment.
RAW264.7 cells or mouse peritoneal macrophages were plated in 96-well plates at 10^4 cells/well and cultured with DMEM-F12 containing 10% FBS and 1μg/mL 22-[N-(7-nitrobenz-2-oxa-1,3-diazol-4-yl)amino]-23,24-bisnor-5-cholen-3β-Ol (NBD-cholesterol) for 24 h. […] NBD-cholesterol in the medium and cell lysis buffer were measured, respectively, using a Tecan Infinite® M1000Pro Microplate Reader (Tecan Group Ltd.) at 485-nm excitation wavelength and 535-nm emission wavelength. Cholesterol efflux was expressed as a percentage of fluorescence in the medium relative to the total amount of fluorescence.

In assay [5] the test system is ABCA1. The assay can be described thus: qRT-PCR of ABCA1 in peritoneal macrophages isolated from exposed C57BL/6 mice. Format: in vivo, mouse. The note with it: 200 mg/kg BW oral gavage for 7 d, control set to 1, p<0.01. The procedure: Total RNA was isolated from RAW264.7 cells and mouse peritoneal macrophages using TRIzol reagent according to the manufacturer’s instructions. Then a Nanovue Plus™ spectrophotometer (GE Healthcare Life Science) was used to analyze the concentration, quality, and purity of the RNA. Total RNA ( 1μg ) was mixed with oligo deoxythymine (dT) ( 1μL ) at 70°C for 5 min and then combined with a mixture containing Moloney murine leukemia virus (MMLV) reverse transcriptase ( 1μL ), deoxy-ribonucleoside triphosphate (dNTP) ( 1.25μL ), Recombinant RNasin® Ribonuclease Inhibitor (Promega) ( 0.65μL ), and MMLV buffer ( 5μL ) at 42°C for 60 min. The SYBR® Green PCR Kit (TOYOBO) was used for RT-PCR analysis. Real-time fluorescence detection was performed using the StepOnePlus™ sequence detection system (Applied Biosystems). […]
All experiments related to animals were approved by the institutional animal care and use committee of Peking University and followed the guidelines for animal experiments of the university as well as for experimental animals in China. […] Body weight (BW) was measured every week during the dosing period. […] Considering that this study assessed the effects of short-term exposure to TPHP, whereas humans are exposed to TPHP over a lifelong period, the present study used exposure doses that were higher than that of human exposure from house dust. […]

Take `O=P(Oc1ccccc1)(Oc1ccccc1)Oc1ccccc1` [TPHP, triphenyl phosphate]: the “Contribution to the LXRβ-antagonist activity of SRM2585” value in assay [1] (dust standard reference material SRM2585) was determined as 12.68%. Also, the “Share of the LXRβ-antagonist activity of indoor dust explained by the chemical” value in assay [1] (range over indoor dust samples (Table S4)) is reported as 0.37–32.60%. The Adipogenesis result in assay [2] is “promote adipogenesis”. Besides, in assay [3], the midpoint of inhibition, the IC50, lay at 762 nM. Also, the “NBD-cholesterol efflux mediated by ApoA-I” value in assay [4] (100–20,000 nM) was “significantly inhibited”. For the same compound, the “NBD-cholesterol efflux mediated by HDL” value in assay [4] (1,000–20,000 nM) is listed as “significantly inhibited”. Also, the “ABCA1 gene expression in peritoneal macrophages relative to control” value in assay [5] is recorded as 0.51±0.07 fold.

As a reminder, the IC50 is the midpoint of a concentration-inhibition curve. A low value points to greater potency.
